From patent US20250263457A1, “Pharmaceutical Composition for Preventing and Treating Liver Disease Comprising Novel Peptide” (Pusan National University Industry-University Cooperation …, priority 2024, published 2025) come the findings set out here.

Assay [1] deals with alcohol-related liver disease mouse model. Briefly: Fibrosis markers and collagen accumulation in liver tissue of mouse model. The class given is in vivo, C57BL/6 male mice. The conditions noted are these: 3.3 μg/kg i.p. every other day for three weeks, EtOH diet group, vs vehicle. An excerpt: (§1) To prepare alcohol-related liver disease mice, 8-week-old C57BL/6 male mice were fed with a Lieber DeCarli liquid diet (Dyets, 710260) containing 5% EtOH for 9 weeks, and then injected intraperitoneally with a vehicle (PBS) every other day along with feeding liquid diet for additional 3 weeks. As a control group for the EtOH diet, mice fed with a pair Lieber DeCarli liquid diet (Dyets, 710027) having the same total calories as the EtOH diet were used (FIG. 4A).
In most chronic liver diseases, severe inflammatory responses were accompanied by fibrosis. Accordingly, the degree of fibrosis in the liver tissue of the alcohol-related liver disease mouse model established by the method of Example 5.1 in the present disclosure was confirmed through the expression of fibrosis markers using RT-qPCR and Western blot. In addition, the accumulation of collagen in the liver tissue and the expression of α-SMA were confirmed. In addition, the concentration of collagen in the liver tissue was confirmed through Sirius red staining, and the expression of α-SMA was confirmed through immunohistochemical staining. At this time, RT-qPCR and Western blot were performed in the same manner as in Example 2, and immunohistochemical staining (IHC) was performed in the same manner as in Example 5.2.3. In IHC, an anti-α-SMA antibody was used as the primary antibody.
After deparaffinization and hydration of the liver tissue section slides prepared in the same manner as in Example 5.2.3, the section slides were treated with 0.1% Sirius red F3B (Sigma-Aldrich) and 0.1% Fast Green (Sigma-Aldrich) solutions containing saturated picric acid (Sigma-Aldrich) and reacted for 20 minutes. After the staining reaction was completed, the section slides were dehydrated, mounted, and observed under a microscope. […] In addition, it was confirmed that the expression of α-SMA in the liver tissue in the EtOH diet group increased compared to the control group (pair) (FIG. 5D).
The alcohol-related liver disease mouse model established by the method of Example 5.1 was administered vehicle (PBS) or peptide YJ (3.3 μg/kg) intraperitoneally every other day for three weeks, and then blood was collected and liver tissue was extracted to confirm the liver disease treatment effect of peptide YJ.
The degree of fibrosis in the liver tissue extracted from the experimental mice of Example 5.3 was confirmed in the same manner as in Example 5.2.4.

The subject of assay [2] is human pHSCs. Description: RT-qPCR and Western blot of fibrosis/activation markers in human pHSCs. The assay is classed as cell-based. The conditions noted are these: 40 ng/ml, 24 and 48 hours, vs control (FIGS. 3C, 3D). How it is done: In addition, after pHSCs were treated with peptide YJ for 24 and 48 hours by the same method as above, respectively, RNA and protein were extracted (whole lysate) and the expression of pHSCs activation markers was confirmed through RT-qPCR (FIG. 3C) and Western blot (FIG. 3D). Western blot was performed using the same method as in Example 2, and RNA extraction and RT-qPCR were performed as follows. At this time, human pHSCs treated with PBS were used as a control group.
First, total RNA was extracted from each cell using a Trizol solution (Invitrogen, 15596-026), and then the concentration and purity of RNA were confirmed using a nanodrop. Thereafter, complementary DNA (cDNA) was synthesized using the RNA as a template using the SuperScript First-strand Synthesis System (Invitrogen, 18064014). The cDNA synthesized by the method was used as sample DNA in quantitative real-time PCR (qPCR).
The quantitative real-time PCR (qPCR) was performed using Power SYBR Green Master Mix (Applied Biosystem), and the results were analyzed by a […] method. The qPCR results were analyzed for significance using Mean±SEM values of three independent experiments through one-way ANOVA followed by post hoc Tukey's test.
A general note: In qPCR the cycle at which signal appears reflects the starting amount.

Assay [3] has as its system alcohol-related liver disease mouse model. Briefly: Triglyceride accumulation in liver tissue of alcohol-related liver disease mouse model. The class given is in vivo, C57BL/6 male mice. The conditions noted are these: 3.3 μg/kg i.p. every other day for three weeks.
Source text: as §1
Triglycerides in the liver tissue obtained by the method of Example 5.2 were measured using the following method.
In addition, the accumulation of triglycerides in the liver tissue was confirmed using Oil red O staining.
Specifically, the liver tissue extracted from the mice was embedded in OCT and frozen-stored at −80° C. The liver tissue embedded in OCT was cut into 6 μm-thick sections to produce tissue section slides and then fixed by treating 4% paraformaldehyde. The tissue section slides were washed with distilled water and treated with 100% propylene glycol ([…], Sigma-Aldrich), and triglycerides were stained with Oil Red O (Sigma-Aldrich). After staining, the section slides were washed with 60% PEG, and the nuclei were counterstained with hematoxylin. The liver tissue section slides produced as described above were observed under a microscope to confirm the accumulation of triglycerides in the liver tissue. […]

The subject of assay [4] is CD44. Description: Immunofluorescence of CD44ICD and α-SMA in human pHSCs. The conditions noted are these: 40 ng/ml, immunofluorescence (FIG. 3B). The assay is classed as cell-based. How it is done: The cleavage of CD44 and the expression of the activation marker of pHSCs by peptide YJ treatment were confirmed through immunofluorescence. At this time, human pHSCs treated with PBS were used as a control group.
Specifically, human pHSCs (5×10^4 cells/ml) were seeded on coverslips and then cultured overnight. The cells were treated with peptide YJ at a concentration of 40 ng/ml and further cultured for 6, 12, and 24 hours, respectively. The cells were fixed and permeabilized by treating each cell with 4% paraformaldehyde and 0.01% Triton X-100. To inhibit non-specific binding of antibodies, blocking (Dako, X9090) was performed, and then the primary antibodies were treated and reacted overnight at 4° C. At this time, the primary antibodies used were anti-CD44ICD antibody (Cosmo Bio, KAL-KO601) and α-SMA (Sigma-Aldrich, A5228). Thereafter, the cells were washed with TBS, treated with a secondary antibody, and reacted at room temperature for 30 minutes. The secondary antibody used were Alexa Fluor 488-conjugated chicken anti-mouse IgG antibody (Invitrogen, A21200) or Alexa Fluor 568-conjugated goat anti-rabbit IgG antibody (Invitrogen, A10042). The cells were washed with TBS, and then treated with 4′,6-diamidino-2-phenylinole (DAPI, VECTASHIELD, H-1200-10) to perform nuclear staining. Finally, the coverslip was fixed on a slide glass using a mounting solution and then observed with a confocal microscope DMi8-S (Leica Microsystems) or CLSM21 (Carl Zeiss Inc.).

[5] abbreviates: RT-qPCR, Western blot (FIGS. 7A, 7B).

As to “peptide YJ: TSG-6 fragment: core domain RSGKYKLTYAEAKA plus C-terminal extension VCEFEGGHLATYKQLEAARKIGFHVCAAGWMAK (SEQ ID NO: 9); TSG-6 mimetic (RSGKYKLTYAEAKAVCEFEGGHLATYKQLEAARKIGFHVCAAGWMAK; peptide 4)”, in assay [1] (setting [5]), the “mRNA and protein expression of collagen1α1 in the liver tissue” value is “significantly reduced”; the “mRNA and protein expression of vimentin in the liver tissue” value is “significantly reduced”; the “mRNA and protein expression of α-SMA in the liver tissue” value is listed as “significantly reduced”. In assay [1] (hydroxyproline assay, Sirius red staining, IHC (α-SMA) (FIGS. 7C, 7D)), the “collagen accumulation in the liver tissue” value is “significantly reduced”. Further, in assay [2] (RT-qPCR and Western blot), the “expression of COL1α1” value is reported as “decreased”, the “expression of CTGF” value is reported as “decreased”, the “expression of TGF-β” value is “decreased” and the “expression of TIMP1” value is reported as “decreased”. For the same substance, in assay [2] (RT-qPCR and Western blot), the “expression of α-SMA” value is “decreased”. The “expression of GFAP (inactivation marker of pHSCs)” value in assay [2] is “increased”. Also, the “amount of triglycerides in the liver tissue” value in assay [3] (EtOH diet group, vs vehicle (FIG. 6D)) was “significantly reduced”. Further, the “size and number of lipid droplet in the liver tissue” value in assay [3] (H&E staining (FIG. 6E)) was “significantly reduced”. Moreover, in assay [4] (12 hours), the “expression of CD44ICD in the nucleus” value was “decreased” and the “expression of α-SMA” value was “decreased”. In addition, in assay [4] (24 hours), the “expression of CD44ICD in the nucleus” value was “no expression of CD44ICD in the nucleus was observed” and the “expression of α-SMA” value is “significantly decreased”.
